# Like-named read-outs stand apart in the source and are kept apart here.
# Experiments:
# [1] = In vivo toxicity (body weight, spleen, serum cytokines); set-up: species or system C57BL/6 mice; details: s.c.; EUCV 25.2 and 100.6 nmol, Pam2CSK4 100.6 nmol, poly(I:C) 2.5 nmol; serum at 2, 8, 24 h, ELISA
# [2] = test system: bone marrow-derived dendritic cells (BMDCs); test: BMDC stimulation: costimulatory molecules and cytokines; type: cell-based, C57BL/6 mice; details: 100 nM, 24 h, ELISA
# Description: Bone marrow was harvested from femurs and tibias of C57BL/6 mice. Red blood cells were lysed with Pharm Lyse lysing solution (BD, no. 555899), and the remaining cells were washed using DPBS (HyClone, no. SH30378.02), followed by centrifugation to the collection. Bone marrow cells were resuspended at a concentration of 1 × 10^6 cells/mL in RPMI-1640 medium supplemented with 10% FBS, 1% streptomycin-penicillin, and 20 ng/mL GM-CSF (R&D Systems, no. 415-ML-005). On day 3, add an additional medium of the same supplemented as described above. BMDCs were harvested on day 6 and seeded at 3 × 10^5 cells/mL in 24-well plates for stimulation.
# Differentiated THP-1, BMDC (3 × 10^5 cells per well) were seeded, and after 24 h starved with serum-free-medium for 1 h. […] To measure the inflammatory cytokine level, the culture medium was harvested, centrifuged at 500 × g for 10 min at 4°C, and the supernatant was separated. The expression of inflammatory cytokines was measured using hTNF-α (BD, no. 555212), IL-12p70 (BD, no. 555256), IL-12p40 (BD, no. 555165), and IL-6 (BD, no. 555240) ELISA kits according to the manufacturer’s instructions. To investigate the expression of costimulatory molecules on the cell surface, cells were harvested using dissociation buffer (5 mM EDTA in DPBS), washed, and stained with 1 μg/mL antibody, followed by flow cytometry analysis. […]
# [3] = Biodistribution to lymph nodes by IVIS imaging; type: in vivo, C57BL/6 mice; details: subcutaneous, 5 nmol FAM-labeled, IVIS over time, n = 3 per group
# Description: Seven-week-old C57BL/6 mice were subcutaneously injected with 5 nmol FAM-E-, FAM-E+U-, or FAM-labeled EUCV, respectively. After 0.5, 2, 6, or 24 h, organs were collected and washed with PBS to remove any remaining blood. For biodistribution analysis, images were obtained using an In Vivo Imaging System (IVIS) Lumina II imaging systems (PerkinElmer; excitation 494 nm, emission 518 nm) and analyzed by Living Image software.
# TC-1 tumors = test: TC-1 tumor model, combination with anti-PD-1 blockade; type: in vivo, C57BL/6 mice
# Description: TC-1 tumor cells expressing HPV16-E6 and E7 proteins and E.G7-OVA cells expressing chicken OVA were used to generate of mouse tumor model. For the therapeutic cancer vaccine model, 7-week-old C57BL/6 mice were subcutaneously injected on the right flank with TC-1 cells (1 × 10^5 cells per mouse) in 100 μL DPBS. On day 6 when tumors measured 100 mm^3 […], treatment with 5 nmol of E, E+U, and EUCV was initiated as indicated in the schedule. On day 20 mice were sacrificed, and tumor tissues were collected for TILs analysis. For the anti-PD-1 antibody combination model, 5 nmol of E and EUCV was injected subcutaneously, and 200 μg of anti-PD-1 antibody (BioXcell, clone 29F.1A12, no. BE0273) was injected intraperitoneally as indicated in the schedule. On day 20 mice were sacrificed, and tumor tissues were collected for qRT-PCR and immunohistochemistry analysis. Survival was recorded by observing the mice up to 60 days and mice were euthanized when tumor volume reached 1,500 mm^3. For the E.G7-OVA tumor model, 7-week-old C57BL/6 mice were subcutaneously injected on the right flank with E.G7-OVA cells (1 × 10^6 cells per mouse) in 100 μL DPBS. On day 3 when the tumor measured 100 mm^3 […], treatment with 5 nmol of O, O+U, and OUCV was initiated as indicated in the schedule. On day 17 mice were sacrificed, and tumor tissue was collected for TIL analysis. In all experiments, tumors were measured 3 times a week using a caliper and calculated using the formula V(volume:mm^3)=L(length)×W^2(width)×0.52 ,[5] and mice were euthanize when tumor volume reached 1,500 mm^3.
# [4] = Pharmacokinetics: plasma level of FAM-labeled antigen after injection; type: in vivo; details: subcutaneous, 5 nmol 5-FAM-labeled, C57BL/6 mice, n = 3 per group, plasma diluted 1:20 in PBS, fluorescence Ex/Em 494/518 nm, followed for 24 h
# Description: Seven-week-old mice were intravenously or subcutaneously injected with 5 nmol labeled SLP or protein. At the indicated time point, blood was collected using ophthalmic bleeding into heparin-coated micro hematocrit capillary tubes (Fisherbrand, no. 22-362574). After being transferred blood into a microtube, plasma was isolated from blood by centrifugation at 4°C for 10 min at 1,000 × g to eliminate the cells, and then centrifugation at 4°C for 15 min 2,000 × g for removed platelets. The plasma was diluted 1:20 into PBS and measured on Infinite 200 PRO (TECAN) against a standard curve of analytes diluted into PBS (Ex/Em: 494/518 nm). All plasma was normalized to the maximum fluorescence detected in the individual injection sample and plotted as percent injection dose (% ID) versus time. The half-life was calculated by fitting the intravenous plasma curve using C=C0×e^–kt . The subcutaneous curve was fit to C=[F×ka×C0/VD(ka–k)]×(e^–k×t–e^–ka×t ), where C is the plasma concentration of indicated times, C0 is the initial serum concentration, k is the elimination rate constant, F is the systemic absorbance, ka is the absorption rate constant, VD is the volume of distribution.[72] The curve graphs were represented using nonlinear regression on GraphPad Prism.
# [5] = test system: spleen cells re-stimulated with epitope peptides; test: SLP screening, IFN-γ ELISpot; type: in vivo, C57BL/6 mice; details: 20 μg SLP with U (100 μg) s.c. twice, spleen cells 7 days after final immunization
# Description: Seven-week-old C57BL/6 mice were immunized subcutaneously in the right back twice at 1-week intervals using SLPs (HPV16 E6_23–42, E6_43–62, E6_123–143, E75–25, E7_43–62, and E7_76–95; 20 μg per SLP) with U (100 μg). After 7 days at final immunization, cells were isolated from the spleen and seeded in the ELISpot well in triplicates (5 × 10^5 cells per well) with 10 μg/mL of re-stimulatory 8–9 mer epitope peptides (HPV16 E6_29–37, E6_49–57, E6_129–138, E7_11–19, E7_49–57, and E7_82–90), respectively. Antigen-specific immune responses were detected by AID EliSpot Reader (AID, no. ELR08).
# BMDCs [6] = type: cell-based, C57BL/6 mice
# BMDCs [7] = test: In vitro antigen presentation ([…]/H-2K^b) in BMDCs; type: cell-based, C57BL/6 mice
# Description: To examine TLR2-specific antigen uptake and presentation, BMDCs were isolated from TLR2^WT and TLR2^–/– mice as described above. BMDC cells (3 × 10^5) were seeded in the 24-well plate. […] C8138), 20 or 40 μM dynasore (Sigma, no. 324410), 1 or 2 μM cathepsin S inhibitor (MCE, no. LY 3000328), 1 or 2 μM methyl-β-cyclodextrin (Sigma-Aldrich, no. C4555), or 1 or 2 mM amiloride (Merck, no. A7410) 1 mg/mL for 30 min. After pretreatment, labeled or native samples were treated in the wells, followed by antigen uptake or presentation analyzed by flow cytometry as described above.
# hTLR2/6 = biological target: T1, hTLR2/6 (Homo sapiens, UniProt O60603+Q9Y2C9); test: HEK-Blue SEAP assay (NF-κB); type: cell-based; details: HEK-Blue hTLR2/6 cells, 24 h
# T1 construct: host or cells: HEK-Blue hTLR2/6 (HEK293-derived NF-kB/SEAP reporter cells)
# T1 sequence (O60603 21-784): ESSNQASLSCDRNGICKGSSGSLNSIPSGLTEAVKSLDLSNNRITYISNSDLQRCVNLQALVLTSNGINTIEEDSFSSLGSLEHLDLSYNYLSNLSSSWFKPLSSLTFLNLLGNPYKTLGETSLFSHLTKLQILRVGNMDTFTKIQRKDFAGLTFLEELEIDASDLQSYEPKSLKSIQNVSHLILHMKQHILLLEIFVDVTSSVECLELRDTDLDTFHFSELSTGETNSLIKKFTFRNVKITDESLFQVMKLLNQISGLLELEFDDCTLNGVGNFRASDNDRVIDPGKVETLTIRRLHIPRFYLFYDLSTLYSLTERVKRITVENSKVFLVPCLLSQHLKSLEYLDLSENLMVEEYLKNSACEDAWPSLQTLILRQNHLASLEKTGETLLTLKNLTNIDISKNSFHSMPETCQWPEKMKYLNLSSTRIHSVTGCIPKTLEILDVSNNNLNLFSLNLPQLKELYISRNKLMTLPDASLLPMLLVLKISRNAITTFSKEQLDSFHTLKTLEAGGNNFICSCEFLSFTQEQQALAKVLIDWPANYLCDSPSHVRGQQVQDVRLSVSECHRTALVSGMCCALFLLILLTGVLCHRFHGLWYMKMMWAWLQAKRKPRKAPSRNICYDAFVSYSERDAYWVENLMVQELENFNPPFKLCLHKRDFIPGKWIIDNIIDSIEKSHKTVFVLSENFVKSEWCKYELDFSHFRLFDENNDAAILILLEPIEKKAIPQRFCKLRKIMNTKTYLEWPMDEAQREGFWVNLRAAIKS
# T1 sequence (Q9Y2C9 32-796): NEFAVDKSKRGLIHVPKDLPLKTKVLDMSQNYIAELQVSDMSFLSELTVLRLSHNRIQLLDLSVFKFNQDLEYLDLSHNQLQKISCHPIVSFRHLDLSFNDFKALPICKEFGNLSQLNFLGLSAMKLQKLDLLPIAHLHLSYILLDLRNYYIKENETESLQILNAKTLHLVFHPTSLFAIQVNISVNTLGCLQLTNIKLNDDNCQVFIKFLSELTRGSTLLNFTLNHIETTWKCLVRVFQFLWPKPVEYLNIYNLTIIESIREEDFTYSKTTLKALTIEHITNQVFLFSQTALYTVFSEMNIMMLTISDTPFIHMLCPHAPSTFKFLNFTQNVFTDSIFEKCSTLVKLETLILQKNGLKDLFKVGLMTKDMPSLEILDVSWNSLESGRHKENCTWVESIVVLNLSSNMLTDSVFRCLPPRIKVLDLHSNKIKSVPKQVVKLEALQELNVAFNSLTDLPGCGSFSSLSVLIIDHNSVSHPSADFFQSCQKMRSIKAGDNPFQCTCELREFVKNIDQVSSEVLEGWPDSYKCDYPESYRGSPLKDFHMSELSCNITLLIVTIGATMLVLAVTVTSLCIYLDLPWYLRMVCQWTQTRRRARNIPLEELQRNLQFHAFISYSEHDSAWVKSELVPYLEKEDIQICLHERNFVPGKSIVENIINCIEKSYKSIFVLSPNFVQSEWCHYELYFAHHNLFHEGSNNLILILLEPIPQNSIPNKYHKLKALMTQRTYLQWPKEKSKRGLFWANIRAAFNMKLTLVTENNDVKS
# Description: HEK-Blue hTLR2/6 (Invivogen, no. hkb-htlr26), hTLR2/1 (Invivogen, no. hkb-htlr21), and hTLR4 (Invivogen, no. hkb-htlr4) cells were cultured in DMEM (HyClone, no. SH30243.01) supplemented with 10% heat-inactivated FBS, 1% penicillin-streptomycin, and 100 μg/mL normocin (Invivogen, no. ant-nr-1), with added HEK-Blue Selection (Invivogen, no. hb-sel) added in medium after the cells were passaged twice. For the SEAP assay, HEK-Blue cells were harvested and resuspended to 2.8 × 10^5 cells/mL in a culture medium. […] The plates were then incubated for 24 h at 37°C, and 5% CO2 and the supernatant was collected. After removing the remaining cells by centrifugation, 20 μL of supernatant was transferred into a 96-well plate with 180 μL QUNATI-Blue solution (Invivogen, no. rep-pbs). All plates were incubated at 37°C, 5% CO2 for 3–4 h, and absorbance was measured at 620 nm with a microplate reader (TECAN, no. 30087502).
# Raw 264.7 cells = test: In vitro cytotoxicity, CCK-8; details: different concentrations, CCK-8 18 h after treatment
# Description: (§1) The in vitro cytotoxicity test was assessed using Cell Counting Kit (CCK)-8 assays (Dojindo, no. CK04). DC2.4, Raw 264.7, and TC-1 cells were seeded onto 96-well plates for 24 h before treating them with different concentrations of EUCV and doxorubicin. A 10% CCK-8 solution was added to each well 18 h after treatment, and the plates were incubated at 37°C in a 5% CO2 atmosphere for 30 min to 4 h. The absorbance at 450 nm was detected using an instrument. Relative cell viability was calculated as a percentage of untreated control cells. To assess in vivo toxicity, E7 (100.6 nmol) and EUCV at 25 mpk (25.2 nmol) and 100 mpk (100.6 nmol) were subcutaneously injected into the backs of C57BL/6 mice. […] Mouse body weight was measured immediately after administration and at 24 h intervals, and at 48 h the mice were euthanized to measure spleen size to evaluate splenomegaly. After vaccine administration, blood was drawn at 2, 8, and 24 h, and cytokines IL-6 (BD, no. 555240) and IL-12p40 (BD, no. 555165) in serum were quantified using ELISA.
# DC2.4 cells = test: In vitro cytotoxicity, CCK-8; details: different concentrations, CCK-8 18 h after treatment
# Description: as §1
# TC-1 cells = test: In vitro cytotoxicity, CCK-8; type: cell-based, mouse; details: different concentrations, CCK-8 18 h after treatment
# Description: as §1
# [8] = BMDCs pretreated 30 min with inhibitor at various concentrations, then FAM-labeled sample 100 nM 24 h, flow cytometry
# [9] = BMDCs pretreated 30 min with inhibitor, then 100 nM O, O+U or OUCV, flow cytometry
compound,measurement,setting,value
poly(I:C),"bloodstream cytokines (IL-6, IL-12p40), systemic toxicity",[1],significant inflammatory cytokine expression
GQAEPDRAHYNIVTFCCKCD [HPV-16 E7_43–62 synthetic long peptide antigen],secretion of IL-12p70 and IL-6,[2],absent
same,"distribution among inguinal, axillary and iliac lymph nodes",[3],diffused distribution to axillary and iliac LNs beyond inguinal LNs near the injection site
same,mortality by day 26,"TC-1 tumors; TC-1 tumor-bearing mice, 5 nmol s.c. days 6 and 13, anti-PD-1 200 μg i.p. days 6, 9, 12, 15, n = 8",100%
same,Complete regression (mice / group),"TC-1 tumors; TC-1 tumor-bearing mice, 60 days, n = 8 per group, printed in Figure 5C",0/8
same,tumor growth,"TC-1 tumors; TC-1 tumors, 5 nmol s.c. days 6 and 13, with or without anti-PD-1 blockade, n = 8",Neither E alone nor the combination of E+αPD-1 blockade significantly suppressed tumor growth
same,time at which the blood concentration peaked,[4],0.25 h
same,IFN-γ activity among E6- and E7-derived SLPs,[5],highest interferon gamma (IFN-γ) activity
CNC(=O)O[C@H]1COc2ccc(N3CCN(C4COC4)CC3)cc2[C@@H]1NC(=O)c1ccc(F)cc1 [CS],effect of endocytosis/processing inhibitor on E+U and EUCV uptake,BMDCs [6],no change
same,effect of inhibitor on antigen presentation (SIINFEKL/H-2K^b),BMDCs [7],reduction in antigen presentation
N=C(N)NC(=O)c1nc(Cl)c(N)nc1N [amiloride],effect of endocytosis/processing inhibitor on E+U and EUCV uptake,BMDCs [6]; [8],no change
O=C(N/N=C/c1ccc(O)c(O)c1)c1cc2ccccc2cc1O [dynasore],effect of endocytosis/processing inhibitor on E+U and EUCV uptake,BMDCs [6]; [8],reduced E+U and EUCV uptake
same,effect of inhibitor on antigen presentation (SIINFEKL/H-2K^b),BMDCs [7]; [9],reduced
Pam2CSK4,"bloodstream cytokines (IL-6, IL-12p40), systemic toxicity",[1],significant inflammatory cytokine expression
same,"nuclear factor κB induction (SEAP, OD620)",hTLR2/6,induced nuclear factor κB in TLR2/6-expressing cells
"CN(C)CCCN1c2ccccc2Sc2ccc(Cl)cc21 [CM, chlorpromazine]",effect of endocytosis/processing inhibitor on E+U and EUCV uptake,BMDCs [6]; [8],reduced E+U and EUCV uptake
same,effect of inhibitor on antigen presentation (SIINFEKL/H-2K^b),BMDCs [7]; [9],reduced
COc1cccc2c1C(=O)c1c(O)c3c(c(O)c1C2=O)C[C@@](O)(C(=O)CO)C[C@@H]3O[C@H]1C[C@H](N)[C@H](O)[C@H](C)O1 [doxorubicin],cytotoxicity (relative cell viability),Raw 264.7 cells,concentration-dependent toxicity
same,cytotoxicity (relative cell viability),DC2.4 cells,concentration-dependent toxicity
same,cytotoxicity (relative cell viability),TC-1 cells,concentration-dependent toxicity
methyl-β-cyclodextrin [Mbcd],effect of endocytosis/processing inhibitor on E+U and EUCV uptake,BMDCs [6]; [8],no change

# Reference: paper PMC11489552, “Specific targeting of cancer vaccines to antigen-presenting cells via an endogenous TLR2/6 ligand derived from cysteinyl-tRNA synthetase 1” (Molecular Therapy, 2024)
